Patent publication US20250114415A1, “METHOD FOR LOWERING CHOLESTEROL AND LIPID LEVELS USING THE ANTRODIA CINNAMOMEA WATER-INSOLUBLE DIETARY FIBER” (UNIVERSITY OF SHANGHAI FOR SCIENCE AND TECHNOLOGY, priority 2020, published 2025)
Marks after values point to notes of the source that are not given here.

Legend:
[1] = system: mice fed with high-fat feed; experiment: Lipid-lowering function test (animal test): serum lipids (HDL-C, LDL-C) of mice on high-fat feed; format: in vivo, C57BL/6 mice; details: gavage, 8 weeks
Protocol: Samples: The water-insoluble dietary fiber component ACA-DK of Antrodia cinnamomea, which is prepared as a suspension of a certain concentration and placed at 4° C. for further use.
Test animals: 40 C57BL/6 SPF-grade mice weighing 18-22 g were purchased from Shanghai JieSijie Experimental Animal Co., Ltd. (license No. SCXK20180004). They were randomly divided into 4 groups with 10 mice in each group.
Test method: In test environment, the mice were divided into the following 4 groups: Normal group NG (gavage with normal saline), model group MG (high-fat diet), positive control group PG (gavage with lovastatin) and insoluble dietary fiber group LG. Mice in normal group NG were fed with basic feed, and mice in the rest of the groups were fed with high-fat feed. For mice in insoluble dietary fiber group LG, gavage with the dietary fiber was administered once a day for 8 weeks.
Feeding conditions: Mice were raised in an IVC system with a temperature of 18-22° C. and a relative humidity of 40-70%. License No. of the laboratory animal using license is SCXK20180004. The irradiated sterile feed for mice was purchased from Jiangsu Synergy Pharmaceutical Bioengineering Co., Ltd.
Basic feed: Flour 20%, bran 25%, corn 20%, rice flour 10%, soybean meal 20%, fish meal 2%, bone meal 2%, salt 0.9%, vitamin 0.1%;
High-fat feed: Lard 10%, sucrose 5%, cholesterol 1%, bile salt 0.3%, basic feed 83.7%. […]

[2] = system: mice fed with high-fat feed; experiment: Lipid-lowering function test (animal test): TG and TC of mice on high-fat feed; format: in vivo, C57BL/6 mice; details: gavage, 8 weeks
Source text: SPSS 22.0 Software was used to statistically analyze the original data of each experiment, and the ANOVA program was used to test the significance of the data.

For CC[C@H](C)C(=O)O[C@H]1C[C@@H](C)C=C2C=C[C@H](C)[C@H](CC[C@@H]3C[C@@H](O)CC(=O)O3)[C@H]21 [lovastatin], which HDL-C [1] is on record?
The HDL-C was 2.45 ± 0.20 ^D mmol/L.

And the LDL-C [1]?
The LDL-C was 7.73 ± 3.07 ^b mmol/L.

And the TC [2]?
The TC was 0.024 ± 0.005 ^a mmol/g prot.

And the TG [2]?
Its TG is 0.031 ± 0.019 ^B mmol/g prot.
